Reference: patent US10233186B2, “Inhibitors of activin receptor-like kinase” (BLUEPRINT MEDICINES CORPORATION, priority 2016, dated 2019)

Key:
[1] = biological target: T1, ALK2 R206H (GST-tagged mutant ALK2) (Homo sapiens, UniProt Q04771, R206H); assay: ALK binding assay (LANTHASCREEN TR-FRET competitive binding, displacement of Kinase Tracer 178); conditions: ALK2 R206H, LANTHASCREEN TR-FRET competitive binding; read-out: Binding Assay (IC50)
T1 construct: purchased Carna Bioscience or ThermoFisher 09-148 or PV6232
T1 sequence (Q04771 21-509 R206H): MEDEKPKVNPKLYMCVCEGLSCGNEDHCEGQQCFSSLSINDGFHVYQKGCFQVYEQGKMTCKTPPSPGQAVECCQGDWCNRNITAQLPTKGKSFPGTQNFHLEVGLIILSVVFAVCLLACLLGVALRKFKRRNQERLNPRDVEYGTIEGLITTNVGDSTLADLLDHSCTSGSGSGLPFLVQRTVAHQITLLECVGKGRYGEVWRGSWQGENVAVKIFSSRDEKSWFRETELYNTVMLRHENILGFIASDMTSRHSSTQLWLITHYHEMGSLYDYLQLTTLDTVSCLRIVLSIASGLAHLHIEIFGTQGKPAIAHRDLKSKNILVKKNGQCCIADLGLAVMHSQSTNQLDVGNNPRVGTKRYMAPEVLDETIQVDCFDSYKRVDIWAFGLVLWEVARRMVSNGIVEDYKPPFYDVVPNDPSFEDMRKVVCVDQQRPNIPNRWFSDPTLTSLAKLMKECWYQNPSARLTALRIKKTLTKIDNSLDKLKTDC
Procedure: Binding assays were conducted using the LANTHASCREEN® technology (ThermoFisher Scientific). LANTHASCREEN® is a competitive binding, displacement assay where the assumed steady state occupancy of the binding site is measured using a time-resolved, fluorescence energy transfer (TR-FRET) readout between a fluorescent tracer and Europium (Eu)-tagged antibody specific for the kinase or expression tag (e.g. GST) of interest. Displacement of the tracer by a compound of the disclosure reduces, and is directly proportional to, the TR-FRET between the tracer and the antibody. Tracer was used at a concentration equal to or near to its Kd for the kinase.
In all cases, the kinase (2-5 nM) was mixed with Eu-tagged antibody (10 nM) mix and tracer (50 nM) were incubated with test compound titrations prepared in 100% DMSO (1% DMSO final) for 30 minutes at room temperature. All reagents and compounds were dissolved in Kinase Buffer A (ThermoFisher) to achieve the final concentration. […] This readout was normalized to 0% and 100% inhibited control wells, plotted against inhibitor concentration, and fitted to a 4-parameter log dose response curve.
(§1) Blank values in the table indicate that the particular compound was not tested in this assay.

human ALK2 R206H = biological target: T2, human ALK2 R206H (Homo sapiens, UniProt Q04771, R206H); assay: Cell-based ALK2-R206H cell activity assay (Smad1-Ser463/Ser465 phosphorylation by AlphaLISA in HEK293-ALK2-R206H cells); conditions: read-out: Cell Line (Cell Assay IC50)
T2 construct: expressed in transfected cells; host or cells: HEK293 (ATCC CRL1573), lentivirus transduction, blasticidin selection
T2 sequence (Q04771 21-509 R206H): T1 sequence (Q04771 21-509 R206H)
Procedure: A HEK293 (ATCC, Cat^# CRL1573) based stable cell line expressing human ALK2 R206H cDNA (synthesized by GeneScript, Piscataway, N.J.) and a FLAG tag at the C-terminus was generated by lentivirus transduction and subsequent blasticidin (Life Technologies, Cat^#-A1113902) selection at 10 μg/ml for >2 wks. This cell line was named HEK293-ALK2-R206H.
Test compounds were first diluted to 4 mM or 0.4 mM and then serially diluted 3-fold into 10 different concentrations using DMSO. […] Two μl of the diluted compounds were then dispensed into the HEK293-ALK2-R206H cell-containing wells of the microplates in duplicates. In this way, each compound was tested in 10 doses (3-fold serial dilution with the top concentration being 10 μM or 1 μM). Liquid handling was achieved using a Bravo Automated Liquid Handling Platform (Agilent Technologies). DMSO without compound was used as a negative control. The positive control was 1 μM LDN193189, a known bone morphogenetic protein (BMP inhibitor).
The 10-point dose response curve was used to calculate the IC50 values.
as §1

Row | Compound | IC50 [1] [nM] | IC50 (human ALK2 R206H) [nM]
1 | O=C(C1CC1)N1CCN(c2ccnn3cc(-c4cnn(C5CNC5)c4)cc23)CC1 [Compound 100] | < 10 | 100 to 500
2 | O=C(C1CC1)N1CCN(c2ccnn3cc(-c4ccc(C5CNC5)cc4)cc23)CC1 [Compound 102] | < 10 | 100 to 500
3 | O=C(C1CC1)N1CCN(c2ccnn3cc(-c4cnn(C5CCCC5)c4)cc23)CC1 [Compound 103] | 10 to 50 | > 500
4 | O=C(C1CC1)N1CCN(c2ccnn3cc(-c4cnn(C5CCNC5)c4)cc23)CC1 (centres unmarked) [Compound 104] | < 10 | 100 to 500
5 | O=C(C1CC1)N1CCN(c2ccnn3cc(-c4cc5c(s4)CNCC5)cc23)CC1 [Compound 107] | < 10 | < 100
6 | O=C(C1CC1)N1CCN(c2ccnn3cc(-c4nc5c(s4)CNCC5)cc23)CC1 [Compound 109] | < 10 | < 100
7 | CC(C)(C#N)c1ccc(-c2cc3c(N4CCN(C(=O)C5CC5)CC4)ccnn3c2)cc1 [Compound 110] | 10 to 50 | 100 to 500
8 | O=C(C1CC1)N1CCN(c2ccnn3cc(-c4ccc(C5=NCCN5)cc4)cc23)CC1 [Compound 111, cyclopropyl(4-(6-(4-(4,5-dihydro-1H-imidazol-2-yl)phenyl)pyrrolo[1,2-b]pyridazin-4-yl)piperazin-1-yl)methanone] | < 10 | 100 to 500
9 | O=C(C1CC1)N1CCN(c2ccnn3cc(-c4ccc(C5CCNC5)cc4)cc23)CC1 (centres unmarked) [Compound 112] | < 10 | 100 to 500
10 | O=C(C1CC1)N1CCN(c2ccnn3cc(-c4ccc(C5CCCN5)cc4)cc23)CC1 (centres unmarked) [Compound 113] | < 10 | < 100
11 | O=C(C1CC1)N1CCN(c2ccnn3cc(-c4ccc(OC5CNC5)cc4)cc23)CC1 [Compound 115] | < 10 | 100 to 500
12 | O=C(C1CC1)N1CCN(c2ccnn3cc(-c4cnn(C5CCCNC5)c4)cc23)CC1 (centres unmarked) [Compound 116] | < 10 | < 100
13 | O=C(C1CC1)N1CCN(c2ccnn3cc(-c4cnn(C5CCNCC5)c4)cc23)CC1 [Compound 117] | < 10 | 100 to 500
14 | CCN1CC(n2cc(-c3cc4c(N5CCN(C(=O)C6CC6)CC5)ccnn4c3)cn2)C1 [Compound 118] | < 10 | 100 to 500
15 | O=C(C1CC1)N1CCN(c2ccnn3cc(-c4ccc5c(c4)COC54CNC4)cc23)CC1 [Compound 120] | < 10 | 100 to 500
16 | O=C(C1CC1)N1CCN(c2ccnn3cc(-c4ccc(C5CCNCC5)cc4)cc23)CC1 [Compound 122] | < 10 | < 100
17 | O=C(C1CC1)N1CCN(c2ccnn3cc(-c4ccc(C5CCCNC5)cc4)cc23)CC1 (centres unmarked) [Compound 123] | < 10 | 100 to 500
18 | CCN1CC(c2ccc(-c3cc4c(N5CCN(C(=O)C6CC6)CC5)ccnn4c3)cc2)C1 [Compound 124] | < 10 | < 100
19 | O=C(C1CC1)N1CCN(c2ccnn3cc(-c4ccc(C5CCCCN5)cc4)cc23)CC1 (centres unmarked) [Compound 125] | < 10 | < 100
20 | O=C(C1CC1)N1CCN(c2ccnn3cc(-c4ccc(N5CCNCC5)cc4)cc23)CC1 [Compound 127, cyclopropyl(4-(6-(4-(piperazin-1-yl)phenyl)pyrrolo[1,2-b]pyridazin-4-yl)piperazin-1-yl)methanone] | < 10 | < 100
21 | O=C(C1CC1)N1CCN(c2ccnn3cc(-c4cccc(C5CNCCO5)c4)cc23)CC1 (centres unmarked) [Compound 128] | 10 to 50 | 100 to 500
22 | O=C(C1CC1)N1CCN(c2ccnn3cc(-c4ccc(C5CNCCO5)cc4)cc23)CC1 (centres unmarked) [Compound 129] | < 10 | < 100

Row | Compound | IC50 [1] [nM] | IC50 (human ALK2 R206H) [nM]
23 | O=C(C1CC1)N1CCN(c2ccnn3cc(-c4ccc([C@H]5CNCCO5)cc4)cc23)CC1 [Compound 130, (S)-cyclopropyl(4-(6-(4-(morpholin-2-yl)phenyl)pyrrolo[1,2-b]pyridazin-4-yl)piperazin-1-yl)methanone] | < 10 | 100 to 500
24 | O=C(C1CC1)N1CCN(c2ccnn3cc(-c4ccc([C@@H]5CNCCO5)cc4)cc23)CC1 [Compound 131, (R)-cyclopropyl(4-(6-(4-(morpholin-2-yl)phenyl)pyrrolo[1,2-b]pyridazin-4-yl)piperazin-1-yl)methanone] | < 10 | 100 to 500
25 | O=C(C1CC1)N1CCN(c2ccnn3cc(-c4ccc(OCC5CCN5)cc4)cc23)CC1 (centres unmarked) [Compound 132] | < 10 | < 100
26 | O=C(C1CC1)N1CCN(c2ccnn3cc(-c4ccc(OC5CCNC5)cc4)cc23)CC1 (centres unmarked) [Compound 133] | < 10 | < 100
27 | O=C(C1CC1)N1CCN(c2ccnn3cc(-c4ccc(OCC5CNC5)cc4)cc23)CC1 [Compound 134] | < 10 | 100 to 500
28 | O=C(C1CC1)N1CCN(c2ccnn3cc(-c4ccc(N5CCNCC5)nc4)cc23)CC1 [Compound 135] | 10 to 50 | 100 to 500
29 | O=C(C1CC1)N1CCN(c2ccnn3cc(-c4ccc(C5CNCC5F)cc4)cc23)CC1 (centres unmarked) [Compound 137] | < 10 | < 100
30 | CCNC(=O)N1CCN(c2ccnn3cc(-c4ccc(N5CCNCC5)cc4)cc23)CC1 [Compound 140] | < 10 | < 100
31 | CCNC(=O)N1CCN(c2ccnn3cc(-c4ccc([C@@H]5CNCCO5)cc4)cc23)CC1 [Compound 142] | < 10 | 100 to 500
32 | CCOC(=O)N1CCN(c2ccnn3cc(-c4ccc(N5CCNCC5)cc4)cc23)CC1 [Compound 143] | < 10 | < 100
33 | CCOC(=O)N1CCN(c2ccnn3cc(-c4ccc(C5CNCCO5)cc4)cc23)CC1 (centres unmarked) [Compound 144] | < 10 | 100 to 500
34 | CCOC(=O)N1CCN(c2ccnn3cc(-c4ccc(C5CNCC5F)cc4)cc23)CC1 (centres unmarked) [Compound 145] | < 10 | < 100
35 | O=C(C1CC1)N1CCN(c2ccnn3cc(-c4ccc(N5CC6(CNC6)C5)cc4)cc23)CC1 [Compound 146] | < 10 | 100 to 500
36 | CCN1CCC(c2ccc(-c3cc4c(N5CCN(C(=O)C6CC6)CC5)ccnn4c3)cc2)C1 (centres unmarked) [Compound 147] | < 10 | < 100
37 | CCN1CC[C@@H](c2ccc(-c3cc4c(N5CCN(C(=O)C6CC6)CC5)ccnn4c3)cc2)C1 [Compound 148] | < 10 | < 100
38 | CCN1CC[C@H](c2ccc(-c3cc4c(N5CCN(C(=O)C6CC6)CC5)ccnn4c3)cc2)C1 [Compound 149] | < 10 | < 100
39 | CC(C)N1CC(c2ccc(-c3cc4c(N5CCN(C(=O)C6CC6)CC5)ccnn4c3)cc2)C1 [Compound 150, cyclopropyl(4-(6-(4-(1-isopropylazetidin-3-yl)phenyl)pyrrolo[1,2-b]pyridazin-4-yl)piperazin-1-yl)methanone] | < 10 | < 100
40 | C[C@@H]1CN(c2ccnn3cc(-c4ccc(N5CCNCC5)cc4)cc23)CCN1C(=O)C1CC1 [Compound 152] | < 10 | < 100
41 | CN1CCN(c2ccc(-c3cc4c(N5CCN(C(=O)C6CC6)CC5)ccnn4c3)cc2)CC1 [Compound 153] | < 10 | 100 to 500
42 | O=C(C1CCC1)N1CCN(c2ccnn3cc(-c4ccc(N5CCNCC5)cc4)cc23)CC1 [Compound 154] | < 10 | 100 to 500
43 | C[C@@H]1CN(c2ccc(-c3cc4c(N5CCN(C(=O)C6CC6)CC5)ccnn4c3)cc2)CCN1 [Compound 155] | < 10 | 100 to 500
